One series relates to HCT-29. As to the kind of experiment: WST-1 proliferation assay, HCT-29. It is filed as cell-based. The settings on record: Homo sapiens; Colon HCT-29, 72 h; read-out: Anti-proliferative activity IC50 (μM) ± SD. The text has this: Several cancer cell lines were used: breast cancer cells (MDA-MB-231 (ATTCC® Number HTB-26™), MDA-MB-436 (ATTCC® Number HTB-130™), MDA-MB-438, BT-474 (ATTCC® Number HTB-20™)); cervical cancer cells (HeLa (ATTCC® Number CCL-2™)); colon cancer cells (HCT-116 (ATTCC® Number CCL-247™) and HT-29 (ATTCC® Number HTB-38™)); osteosarcoma cells (U2OS (ATTCC® Number HTB-96™)); pancreas cancer cells (MIA PaCa-2 (ATTCC® Number CRL-1420™) and Panc-10.5 (ATTCC® Number CRL-2547™)); prostate cancer cells (PC-3 (ATTCC® Number CRL-1435™) and LNCaP (ATTCC® Number CRL-1740™)); brain cancer cells (U87 glioblastoma (ATTCC® Number HTB-14™) and SH-SYSY neuroblastoma (ATTCC® Number CRL-2266™)). […]
After observation of cells under the microscope, old media were removed and the adherent cells washed gently twice with PBS (Phosphate Buffer Saline, —Ca^2+, —Mg^2+, Lonza cat no: 17-512F/12). […] 50 μl of this solution were transferred in 20 μl of isotonic solution and the cells were counted by count cellular (Beckman Coulter). […]
(§1) The cell proliferation WST-1 assay is a colorimetric assay for the quantification of cell proliferation and viability, based on the enzymatic cleavage of the tetrazolium salt WST-1 added to the culture medium, to a water soluble colored formazan dye, detected by absorbance at 450 nm, by mitochondrial succinate-tetrazolium reductase in viable cells. […]
Background: Formazan colour is commonly taken as a measure of viable cells.

The subject of a further series is CEM. Briefly: WST-1 proliferation assay, CEM. It is filed as cell-based. Conditions: Homo sapiens, CCRF-CEM; Acute lymphoblastic leukemia CEM; read-out: Anti-proliferative activity IC50 (μM) ± SD. As for the experimental part: (§2) All the cancer cell lines were maintained in cultured in DMEM GlutaMAX™ (GIBCO Invitrogen, France, cat no 31966047) enhanced with 10% foetal bovine serum (GIBCO Invitrogen, France, cat no 10270-106) and 1% penicillin G/streptomycin (GIBCO Invitrogen, France, cat no 15140-122). Only Panc-10.5 cells were cultivated in RPMI 1640 medium (Gibco) supplemented with 2 mM L-glutamine, 1.5 g/L sodium bicarbonate, 4.5 g/L glucose, 10 mM HEPES, 1 mM sodium pyruvate, 10 Units/ml human insulin, […] (SVF): 15% (75 ml in 500 ml of medium).
(§3) Cells were grown as subconfluent monolayer and cultured in 75 cm^2 flasks at 37° C., 5% CO2 in a humidified atmosphere, and medium was changed every two days. […]
as §1
(§4) After an incubation period of 72 h, at day 4, were prepared the 19 ml medium with reagent WST-1 1 ml ([…]). […] The cells were incubated at 37° C. in a humidified atmosphere of 5% CO2 for 1 h 30 and the absorbance at 450-655 nm was measured by Microplate Manager 5.2 (Bio-Rad).

The test system of another series is MDA-MB-231. As to the kind of experiment: WST-1 proliferation assay, MDA-MB-231. The class given is cell-based, Human. Conditions: for IC50: Homo sapiens, Breast MDA-MB-231, 72 h, read-out: Anti-proliferative activity IC50 (μM) ± SD; for effect on anti-proliferative effect of 5-FU: MDA-MB-231, combination with 5-FU, 72 hours (FIG. 7); for cytotoxicity for cancer cells in vitro: MDAMB-231 cell survival, FIGS. 1A-C. The protocol: Cells were grown as subconfluent monolayer and cultured in 75 cm^2 flasks at 37° C., 5% CO2 in a humidified atmosphere, and medium was changed every two days. Only cells from passages 2-6 were used for the experiments.
All cells were detached with 3 ml of trypsin/EDTA (chelator of calcium and magnesium ions) (Lonza), incubated for 5 min at 37° C., and examined using a microscope to ensure that the cells were detached and floating. […] The supernatant was removed and the cell pellet resuspended in […] of culture medium. 50 μl of this solution were transferred in 20 μl of isotonic solution and the cells were counted by count cellular (Beckman Coulter).
The cell proliferation WST-1 assay is a colorimetric assay for the quantification of cell proliferation and viability, based on the enzymatic cleavage of the tetrazolium salt WST-1 added to the culture medium, to a water soluble colored formazan dye, detected by absorbance at 450 nm, by mitochondrial succinate-tetrazolium reductase in viable cells. An augmentation in enzyme activity will then lead to an increase in the amount of formazan dye formed, which directly correlates to the number of metabolically active cells in the culture.
After an incubation period of 72 h, at day 4, were prepared the […] medium with reagent WST-1 […] ([…]). The medium was removed from the 96 microplate and 200 μl of solution WST-1/medium were added for each well. The cells were incubated at 37° C. in a humidified atmosphere of 5% CO2 for 1 h 30 and the absorbance at 450-655 nm was measured by Microplate Manager 5.2 (Bio-Rad).

The next series has as its system HeLa. As to the kind of experiment: WST-1 proliferation assay, HeLa. The class given is cell-based. The settings on record: Homo sapiens.
In the next series the test system is A549. As to the kind of experiment: WST-1 proliferation assay, A549. It is filed as cell-based. Conditions: Homo sapiens; Lung A549; read-out: Anti-proliferative activity IC50 (μM) ± SD. As for the experimental part: as §2, §3, §1, §4
The subject of a further series is HT-1080. Briefly: WST-1 proliferation assay, HT-1080. It is filed as cell-based. Conditions: Homo sapiens; Fibrosarcoma HT-1080; read-out: Anti-proliferative activity IC50 (μM) ± SD. The protocol: as §2, §3, §1, §4
The next series relates to DAUDI. As to the kind of experiment: WST-1 proliferation assay, DAUDI. The class given is cell-based. The settings on record: Homo sapiens; Burkitt's lymphoma DAUDI; read-out: Anti-proliferative activity IC50 (μM) ± SD. The protocol:
as §2, §3, §1, §4

In a further series the test system is HCT-116. As to the kind of experiment: WST-1 proliferation assay, HCT-116. It is filed as cell-based. Conditions: Homo sapiens; HCT-116, 0.05 μM.

For orientation: IC50 means the concentration needed to halve the response being measured. The inhibition is the percentage by which the read-out fell short of the control. The low end stands for a response near the control, the high end for a response far below the control.

`Cc1ccc(-c2nc3ccccc3[nH]2)cc1NC(=S)NC(=O)c1ccc2c(c1)OCCO2` [Compound 1, N-[5-(1H-benzimidazol-2-yl)-2-methylphenyl]-N′-(2,3-dihydro-1,4-benzodioxin-6-ylcarbonyl)thiourea]: the IC50 stood at 0.5 ± 0.05 µM with HCT-29; 0.5 ± 0.01 µM in the series with CEM; 0.6 ± 0.03 µM in the series on MDA-MB-231; 0.4 ± 0.04 µM in the series with A549; 0.3 ± 0.23 µM in the series on HT-1080; 1 µM in the series with DAUDI. In addition, the “effect on anti-proliferative effect of 5-FU” value in the series with MDA-MB-231 was “increase the anti-proliferative effect of 5-FU”. Moreover, the “cytotoxicity for cancer cells in vitro” value in the series on MDA-MB-231 was “cytotoxic”. The inhibition at 0.05 µM was found to be 4% with HeLa and 0% in the series with HCT-116.

Consider `O=C(NC(=S)Nc1cccc(-c2nc3ccccc3[nH]2)c1)c1ccc2c(c1)OCCO2` [Compound 2, N-[3-(1H-benzimidazol-2-yl)phenyl]-N′-(2,3-dihydro-1,4-benzodioxin-6-ylcarbonyl)thiourea], for which the IC50 was 0.1 ± 0.01 µM with HCT-29; 0.3 ± 0.04 µM in the series on CEM; 0.4 ± 0.02 µM in the series with MDA-MB-231; 0.1 ± 0.04 µM in the series on A549; 0.07 ± 0.03 µM with HT-1080; 0.5 ± 0.02 µM with DAUDI. The “effect on anti-proliferative effect of 5-FU” value in the series with MDA-MB-231 is on record as “increase the anti-proliferative effect of 5-FU”. Further, in the series with MDA-MB-231, the “cytotoxicity for cancer cells in vitro” value is listed as “cytotoxic”. Also, the inhibition at 0.05 µM in the series with HeLa was 49%; with HCT-116, 25%.
